The target in the assay is T1, HMG-CoA reductase (Rattus norvegicus, UniProt P51639).
T1 sequence (P51639 1-887): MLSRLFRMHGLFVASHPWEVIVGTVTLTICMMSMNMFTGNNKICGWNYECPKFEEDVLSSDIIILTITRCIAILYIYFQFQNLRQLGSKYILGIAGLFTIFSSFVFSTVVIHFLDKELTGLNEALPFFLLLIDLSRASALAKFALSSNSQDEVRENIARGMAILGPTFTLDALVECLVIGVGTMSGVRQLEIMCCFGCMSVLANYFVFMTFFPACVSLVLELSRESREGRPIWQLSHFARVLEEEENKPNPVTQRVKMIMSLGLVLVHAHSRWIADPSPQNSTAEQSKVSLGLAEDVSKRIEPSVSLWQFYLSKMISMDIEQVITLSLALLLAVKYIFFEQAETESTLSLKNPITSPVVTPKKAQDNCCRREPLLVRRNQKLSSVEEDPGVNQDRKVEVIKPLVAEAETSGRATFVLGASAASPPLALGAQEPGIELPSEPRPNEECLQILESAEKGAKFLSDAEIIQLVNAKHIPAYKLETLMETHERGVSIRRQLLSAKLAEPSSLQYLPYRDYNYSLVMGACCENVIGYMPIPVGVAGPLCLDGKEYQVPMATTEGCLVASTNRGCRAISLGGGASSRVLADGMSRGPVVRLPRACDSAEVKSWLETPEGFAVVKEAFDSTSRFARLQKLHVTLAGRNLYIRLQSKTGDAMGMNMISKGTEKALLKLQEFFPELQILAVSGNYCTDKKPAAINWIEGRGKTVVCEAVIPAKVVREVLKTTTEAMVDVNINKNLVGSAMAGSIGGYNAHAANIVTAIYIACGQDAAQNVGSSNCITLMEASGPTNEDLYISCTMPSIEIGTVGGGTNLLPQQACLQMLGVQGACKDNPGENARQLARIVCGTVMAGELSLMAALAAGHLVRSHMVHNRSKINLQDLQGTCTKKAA
Description: intrinsic HMG-CoA reductase inhibition, in vitro protocol of J. Med. Chem., 28, p. 347-358 (1985). The format is biochemical. The following applies: IC50 of test compound compared with that of compactin determined simultaneously; compactin = 100. How it is done:
The intrinsic HMG-CoA reductase inhibition activity of the claimed compounds is measured in the in vitro protocol published in J. Med. Chem., 28, p. 347-358 (1985).
For estimation of relative inhibitory potencies, compactin (i.e., mevastatin) was assigned a value of 100 and the IC50 value of the test compound was compared with that of compactin determined simultaneously in the published in vitro protocol.

SMILES strings stand for the structures.

With `CCC(C)(C)C(=O)O[C@H]1CC2(CC2)C[C@@H]2CC[C@H](C)[C@H](CC[C@@H]3C[C@@H](O)CC(=O)O3)[C@H]21` [1,1-dimethylpropyl --CH2 CH2 --], the “Relative Potency” value turned out to be 170.
As for `CCC(C)(C)C(=O)O[C@H]1CC(C)(C)C[C@@H]2CC[C@H](C)[C@H](CC[C@@H]3C[C@@H](O)CC(=O)O3)[C@H]21` [1,1-dimethylpropyl CH3 CH3, 6(R)-[2-(8(S)-(2,2-Dimethylbutyryloxy)-2(S),6,6-trimethyl-1,2,3,4,4a(S),5,6,7,8,8a(S)-decahydronaphthyl-1(S)]ethyl]-4(R) hydroxy-3,4,5,6-tetrahydro-2H pyran-2-one], the “Relative Potency” value turned out to be 111.

For the origin of these results see US4866090A, “Novel HMG-CoA reductase inhibitors” (Merck & Co., Inc., priority 1988, dated 1989).
